Test system: MV-4-11 cells
Assay: Gene expression microarray analysis (Affymetrix PrimeView) and GSEA
Format: cell-based, human
Design: RFU PODN (11730768_x_at) / Fold change /veh PODN (11730768_x_at) / RFU LINC00158 (11744669_a_at) / Fold change /veh LINC00158 (11744669_a_at) / RFU DUSP10 (11751237_a_at) / Fold change /veh DUSP10 (11751237_a_at) / RFU ID3 (11757404_x_at) / Fold change /veh ID3 (11757404_x_at) / RFU PLEKHG5 (11737974_s_at) / Fold change /veh PLEKHG5 (11737974_s_at) / RFU LRRC4B (11730491_at) / Fold change /veh LRRC4B (11730491_at) / RFU GIMAP4 (11747438_a_at) / Fold change /veh GIMAP4 (11747438_a_at) / RFU KRT8 (11758183_x_at) / Fold change /veh KRT8 (11758183_x_at) / RFU CNN1 (11734310_a_at) / Fold change /veh CNN1 (11734310_a_at) / RFU VPS37D (11726825_at) / Fold change /veh VPS37D (11726825_at) / RFU C10orf10 (11716522_x_at) / Fold change /veh C10orf10 (11716522_x_at) / RFU KIR2DL2 /// KIR2DL4 /// KIR2DL5A /// KIR2DL5B /// KIR2DS1 /// KIR2DS2 /// KIR2DS3 /// KIR2DS4 /// KIR3DL3 /// KIR3DL3 /// KIR3DS1 (11738374_at) / Fold change /veh KIR2DL2 /// KIR2DL4 /// KIR2DL5A /// KIR2DL5B /// KIR2DS1 /// KIR2DS2 /// KIR2DS3 /// KIR2DS4 /// KIR3DL3 /// KIR3DL3 /// KIR3DS1 (11738374_at) / RFU C1QL1 (11718748_at) / Fold change /veh C1QL1 (11718748_at) / RFU TMPRSS4 (11747572_a_at) / Fold change /veh TMPRSS4 (11747572_a_at) / RFU HAMP (11756126_x_at) / Fold change /veh HAMP (11756126_x_at) / RFU RNFT2 (11725882_a_at) / Fold change /veh RNFT2 (11725882_a_at) / RFU NR4A2 (11747474_a_at) / Fold change /veh NR4A2 (11747474_a_at) / RFU ABCC12 (11746883_a_at) / Fold change /veh ABCC12 (11746883_a_at) / RFU TMEM136 (11760407_x_at) / Fold change /veh TMEM136 (11760407_x_at) / RFU CLDN22 /// WWC2 (11732394_at) / Fold change /veh CLDN22 /// WWC2 (11732394_at) / RFU HLA-DPB1 (11760878_x_at) / Fold change /veh HLA-DPB1 (11760878_x_at) / RFU SPINT1 (11716480_a_at) / Fold change /veh SPINT1 (11716480_a_at) / RFU GAP43 (11754022_s_at) / Fold change /veh GAP43 (11754022_s_at) / RFU A4GNT (11735810_at) / Fold change /veh A4GNT (11735810_at) / RFU PRB3 (11715151_x_at) / Fold change /veh PRB3 (11715151_x_at) / RFU TUBB4B (11761932_at) / Fold change /veh TUBB4B (11761932_at) / RFU CAPN14 (11732068_a_at) / Fold change /veh CAPN14 (11732068_a_at) / RFU TMCC2 (11721928_a_at) / Fold change /veh TMCC2 (11721928_a_at) / RFU IRGQ (11745062_a_at) / Fold change /veh IRGQ (11745062_a_at) / RFU FAM174B (11720279_a_at) / Fold change /veh FAM174B (11720279_a_at) / RFU TMPRSS4 (11748680_a_at) / Fold change /veh TMPRSS4 (11748680_a_at) / RFU FAM212B (11763350_a_at) / Fold change /veh FAM212B (11763350_a_at) / RFU PLEKHG5 (11743358_a_at) / Fold change /veh PLEKHG5 (11743358_a_at) / RFU ZSCAN30 (11745921_a_at) / Fold change /veh ZSCAN30 (11745921_a_at) / RFU CMKLR1 (11741424_a_at) / Fold change /veh CMKLR1 (11741424_a_at) / RFU LOC101060620 /// MAPK8IP1 (11723275_at) / Fold change /veh LOC101060620 /// MAPK8IP1 (11723275_at) / RFU SPTSSB (11747773_x_at) / Fold change /veh SPTSSB (11747773_x_at) / RFU PRSS12 (11739890_at) / Fold change /veh PRSS12 (11739890_at) / RFU BIN1 (11741810_x_at) / Fold change /veh BIN1 (11741810_x_at) / RFU WNT11 (11732464_a_at) / Fold change /veh WNT11 (11732464_a_at) / RFU C10orf10 (11716521_a_at) / Fold change /veh C10orf10 (11716521_a_at) / RFU C5orf56 (11738089_at) / Fold change /veh C5orf56 (11738089_at) / RFU CYB561 (11721691_x_at) / Fold change /veh CYB561 (11721691_x_at) / RFU ANKRD19P (11752326_a_at) / Fold change /veh ANKRD19P (11752326_a_at) / RFU OR2T12 /// OR2T33 /// OR2T8 (11738714_s_at) / Fold change /veh OR2T12 /// OR2T33 /// OR2T8 (11738714_s_at) / RFU VCAN (11748164_a_at) / Fold change /veh VCAN (11748164_a_at) / RFU JSRP1 (11732532_at) / Fold change /veh JSRP1 (11732532_at) / RFU KRTAP10-11 (11738290_x_at) / Fold change /veh KRTAP10-11 (11738290_x_at) / RFU MYO3A (11730013_a_at) / Fold change /veh MYO3A (11730013_a_at) / RFU EBF3 (11725865_a_at) / Fold change /veh EBF3 (11725865_a_at) / RFU CAMK2N1 (11719241_x_at) / Fold change /veh CAMK2N1 (11719241_x_at) / RFU C5orf56 (11738088_a_at) / Fold change /veh C5orf56 (11738088_a_at) / RFU OLFML3 (11715873_a_at) / Fold change /veh OLFML3 (11715873_a_at) / RFU LOC100653217 /// NTM (11731650_a_at) / Fold change /veh LOC100653217 /// NTM (11731650_a_at) / RFU MAPK11 (11762145_a_at) / Fold change /veh MAPK11 (11762145_a_at) / RFU FIZ1 (11724087_x_at) / Fold change /veh FIZ1 (11724087_x_at) / RFU OASL (11726364_x_at) / Fold change /veh OASL (11726364_x_at) / RFU SOX15 (11748057_x_at) / Fold change /veh SOX15 (11748057_x_at) / RFU CD79A (11719716_a_at) / Fold change /veh CD79A (11719716_a_at) / RFU HIST1H1D (11736915_at) / Fold change /veh HIST1H1D (11736915_at) / RFU CASKIN2 (11723855_a_at) / Fold change /veh CASKIN2 (11723855_a_at) / RFU LOC730098 (11760151_x_at) / Fold change /veh LOC730098 (11760151_x_at) / RFU OR4N2 (11742367_at) / Fold change /veh OR4N2 (11742367_at) / RFU PRRT2 (11749266_a_at) / Fold change /veh PRRT2 (11749266_a_at) / RFU SNX32 (11753110_a_at) / Fold change /veh SNX32 (11753110_a_at) / RFU CDHR5 (11726645_a_at) / Fold change /veh CDHR5 (11726645_a_at) / RFU RCAN1 (11760418_a_at) / Fold change /veh RCAN1 (11760418_a_at) / RFU FAM167A (11723789_a_at) / Fold change /veh FAM167A (11723789_a_at) / RFU FAM26E (11764081_at) / Fold change /veh FAM26E (11764081_at) / RFU ISYNA1 (11749810_s_at) / Fold change /veh ISYNA1 (11749810_s_at) / RFU ACY1 (11761880_at) / Fold change /veh ACY1 (11761880_at) / RFU 11764098_at / Fold change /veh 11764098_at / RFU SAMD14 (11745864_x_at) / Fold change /veh SAMD14 (11745864_x_at) / RFU NPB (11741838_a_at) / Fold change /veh NPB (11741838_a_at) / RFU TMPRSS6 (11731388_a_at) / Fold change /veh TMPRSS6 (11731388_a_at) / RFU KRTAP10-2 (11738614_at) / Fold change /veh KRTAP10-2 (11738614_at) / RFU ARHGAP8 /// PRR5-ARHGAP8 (11727945_x_at) / Fold change /veh ARHGAP8 /// PRR5-ARHGAP8 (11727945_x_at) / RFU KRTAP5-7 /// NADSYN1 (11734609_at) / Fold change /veh KRTAP5-7 /// NADSYN1 (11734609_at) / RFU RASL12 (11751679_a_at) / Fold change /veh RASL12 (11751679_a_at) / RFU CDKN2B (11736163_a_at) / Fold change /veh CDKN2B (11736163_a_at) / RFU PRF1 (11729649_at) / Fold change /veh PRF1 (11729649_at) / RFU, ZNF638 /// ZNF638-IT1 / Fold change vs veh, ZNF638 /// ZNF638-IT1 / RFU, PANK3 / Fold change vs veh, PANK3 / RFU, SH3YL1 / Fold change vs veh, SH3YL1 / RFU, ZEB2 / Fold change vs veh, ZEB2 / RFU, NRIP1 / Fold change vs veh, NRIP1 / RFU, PTTG1IP / Fold change vs veh, PTTG1IP / RFU, CAPN2 / Fold change vs veh, CAPN2 / RFU, MED14 / Fold change vs veh, MED14 / RFU, SNORA58 / Fold change vs veh, SNORA58 / RFU, C1orf63 / Fold change vs veh, C1orf63 / RFU, LRRFIP1 / Fold change vs veh, LRRFIP1 / RFU, NDUFAF7 / Fold change vs veh, NDUFAF7 / RFU, SLC12A2 / Fold change vs veh, SLC12A2 / RFU, IBTK / Fold change vs veh, IBTK / RFU, ESF1 / Fold change vs veh, ESF1 / Fold change vs veh, TMEM50B / RFU, TAOK1 / Fold change vs veh, TAOK1 / RFU, ACBD3 / Fold change vs veh, ACBD3 / RFU, TMA16 / Fold change vs veh, TMA16 / RFU, RWDD3 / Fold change vs veh, RWDD3 / RFU, BCAT1 / Fold change vs veh, BCAT1 / RFU, EDEM3 / Fold change vs veh, EDEM3 / RFU, TMEM33 / Fold change vs veh, TMEM33 / RFU, WDR75 / Fold change vs veh, WDR75 / RFU, AHCTF1 / Fold change vs veh, AHCTF1 / RFU, TFRC / Fold change vs veh, TFRC / RFU, ZDHHC17 / Fold change vs veh, ZDHHC17 / RFU, NOM1 / Fold change vs veh, NOM1 / RFU, ARL8B / Fold change vs veh, ARL8B / RFU, ZBTB11 / Fold change vs veh, ZBTB11 / RFU, TAMM41 / Fold change vs veh, TAMM41 / RFU, KIAA1704 /// LOC100996395 / Fold change vs veh, KIAA1704 /// LOC100996395 / RFU, ING1 / Fold change vs veh, ING1 / RFU, TRMT61B / Fold change vs veh, TRMT61B / RFU, FUBP3 / Fold change vs veh, FUBP3 / RFU, TP53 / Fold change vs veh, TP53 / RFU, TNKS2 / Fold change vs veh, TNKS2 / RFU, ZFP14 / Fold change vs veh, ZFP14 / RFU, ACTR2 / Fold change vs veh, ACTR2 / RFU, PPP3R1 / Fold change vs veh, PPP3R1 / RFU, PIK3R1 / Fold change vs veh, PIK3R1 / RFU, HNRNPA1 / Fold change vs veh, HNRNPA1 / RFU, RNF170 / Fold change vs veh, RNF170 / RFU, ZNF28 / Fold change vs veh, ZNF28 / RFU, RNGTT / Fold change vs veh, RNGTT / RFU, OGT / Fold change vs veh, OGT / RFU, BRD1 / Fold change vs veh, BRD1 / RFU, MARS / Fold change vs veh, MARS / RFU, ZNF655 / Fold change vs veh, ZNF655 / RFU, FAHD1 / Fold change vs veh, FAHD1 / RFU, BDP1 / Fold change vs veh, BDP1 / RFU, LRRCC1 / Fold change vs veh, LRRCC1 / RFU, ARID1A / Fold change vs veh, ARID1A / RFU, ZNF146 / Fold change vs veh, ZNF146 / RFU, ZNF330 / Fold change vs veh, ZNF330 / RFU, GPN3 / Fold change vs veh, GPN3 / RFU, C9orf123 / Fold change vs veh, C9orf123 / RFU, N4BP2L2 / Fold change vs veh, N4BP2L2 / RFU, ARFIP1 / Fold change vs veh, ARFIP1 / RFU, FAM179B / Fold change vs veh, FAM179B / RFU, BCL10 / Fold change vs veh, BCL10 / RFU, UHRF1BP1L / Fold change vs veh, UHRF1BP1L / RFU, BET1 / Fold change vs veh, BET1 / RFU, CNOT2 / Fold change vs veh, CNOT2 / RFU, ZNF268 / Fold change vs veh, ZNF268 / Fold change vs veh, ZNF507 / RFU, DGCR2 / Fold change vs veh, DGCR2 / RFU, WDSUB1 / Fold change vs veh, WDSUB1 / Fold change vs veh, HSP90B1 /// MIR3652 / RFU, ADSS / Fold change vs veh, ADSS / RFU, GK / Fold change vs veh, GK / RFU, ZNF148 / Fold change vs veh, ZNF148 / RFU, TAF9 / Fold change vs veh, TAF9 / RFU, SLC1A5 / Fold change vs veh, SLC1A5 / RFU, SLMO2 / Fold change vs veh, SLMO2 / RFU, ABCC4 / Fold change vs veh, ABCC4 / RFU, LOC101060439 /// RAP1B / Fold change vs veh, LOC101060439 /// RAP1B / RFU, RFX7 / Fold change vs veh, RFX7 / RFU, GTPBP10 / Fold change vs veh, GTPBP10 / RFU, CNEP1R1 / Fold change vs veh, CNEP1R1 / RFU, BIVM-ERCC5 /// ERCC5 / Fold change vs veh, BIVM-ERCC5 /// ERCC5 / RFU, ILF3 / Fold change vs veh, ILF3 / RFU 11762660_at / Fold change /veh 11762660_at / RFU VCAN (11757783_s_at) / Fold change /veh VCAN (11757783_s_at) / RFU DDX43 (11728927_at) / Fold change /veh DDX43 (11728927_at) / RFU KRT8 (11758188_x_at) / Fold change /veh KRT8 (11758188_x_at) / RFU NKD1 (11759106_at) / Fold change /veh NKD1 (11759106_at) / RFU SRD5A1 (11742802_a_at) / Fold change /veh SRD5A1 (11742802_a_at) / RFU TPSAB1 /// TPSB2 (11721975_s_at) / Fold change /veh TPSAB1 /// TPSB2 (11721975_s_at) / RFU GSTM3 (11746129_a_at) / Fold change /veh GSTM3 (11746129_a_at) / RFU IL23R (11737362_x_at) / Fold change /veh IL23R (11737362_x_at) / RFU TMEM51 (11727254_a_at) / Fold change /veh TMEM51 (11727254_a_at) / RFU PIWIL2 (11732686_x_at) / Fold change /veh PIWIL2 (11732686_x_at) / RFU ORM1 (11744905_x_at) / Fold change /veh ORM1 (11744905_x_at) / RFU CCDC152 (11743942_at) / Fold change /veh CCDC152 (11743942_at) / RFU ECM1 (11717891_a_at) / Fold change /veh ECM1 (11717891_a_at) / RFU IL23R (11748794_a_at) / Fold change /veh IL23R (11748794_a_at) / RFU TNFAIP8L3 (11732012_x_at) / Fold change /veh TNFAIP8L3 (11732012_x_at) / RFU MBOAT4 (11741988_at) / Fold change /veh MBOAT4 (11741988_at) / RFU 11764193_at / Fold change /veh 11764193_at / RFU TMEM53 (11763286_at) / Fold change /veh TMEM53 (11763286_at) / RFU MAGEB2 (11727129_at) / Fold change /veh MAGEB2 (11727129_at) / RFU TMEM200A (11744735_a_at) / Fold change /veh TMEM200A (11744735_a_at) / RFU CCDC152 (11751479_a_at) / Fold change /veh CCDC152 (11751479_a_at) / RFU FAM211A (11726209_a_at) / Fold change /veh FAM211A (11726209_a_at) / RFU RGS16 (11746705_a_at) / Fold change /veh RGS16 (11746705_a_at) / RFU VCAN (11755009_s_at) / Fold change /veh VCAN (11755009_s_at) / RFU RHOB (11743442_s_at) / Fold change /veh RHOB (11743442_s_at) / RFU RGS16 (11720943_a_at) / Fold change /veh RGS16 (11720943_a_at) / RFU RGS16 (11720944_at) / Fold change /veh RGS16 (11720944_at) / RFU, VPS4B / Fold change vs veh, VPS4B / RFU, CREB1 / Fold change vs veh, CREB1 / RFU, DNAJC13 / Fold change vs veh, DNAJC13 / RFU, GNAQ / Fold change vs veh, GNAQ / RFU, CDK5R1 / Fold change vs veh, CDK5R1 / RFU, ZRANB3 / Fold change vs veh, ZRANB3 / RFU, CUL4A / Fold change vs veh, CUL4A / RFU, CCNY / Fold change vs veh, CCNY / RFU, UFL1 / Fold change vs veh, UFL1 / RFU, COG3 / Fold change vs veh, COG3 / RFU, DIAPH2 / Fold change vs veh, DIAPH2 / RFU, SKA2 / Fold change vs veh, SKA2 / RFU, AFF3 / Fold change vs veh, AFF3 / RFU, LMF1 / Fold change vs veh, LMF1 / RFU, IPO11 / Fold change vs veh, IPO11 / RFU, DFFB / Fold change vs veh, DFFB / RFU, FOXP1 / Fold change vs veh, FOXP1 / RFU, CARD8 / Fold change vs veh, CARD8 / RFU, STRN3 / Fold change vs veh, STRN3 / RFU, ADK / Fold change vs veh, ADK / RFU, RASSF2 / Fold change vs veh, RASSF2 / RFU, WIPF1 / Fold change vs veh, WIPF1 / RFU, LARP1B / Fold change vs veh, LARP1B / RFU, RASA1 / Fold change vs veh, RASA1 / RFU, RB1 / Fold change vs veh, RB1 / RFU, PPFIA1 / Fold change vs veh, PPFIA1 / RFU, MAT2A / Fold change vs veh, MAT2A / RFU, CCT5 / Fold change vs veh, CCT5 / RFU, WDR92 / Fold change vs veh, WDR92 / RFU, CUX1 / Fold change vs veh, CUX1 / RFU, TTC7A / Fold change vs veh, TTC7A / RFU, TMEM135 / Fold change vs veh, TMEM135 / RFU, DEPTOR / Fold change vs veh, DEPTOR / RFU, CPM / Fold change vs veh, CPM / RFU, DNAJB6 / Fold change vs veh, DNAJB6 / RFU, CACNA2D3 / Fold change vs veh, CACNA2D3 / RFU, DTX4 / Fold change vs veh, DTX4 / RFU, TFCP2 / Fold change vs veh, TFCP2 / RFU, GMCL1 /// GMCL1P1 / Fold change vs veh, GMCL1 /// GMCL1P1 / RFU, AEBP2 / Fold change vs veh, AEBP2 / RFU, SNHG1 /// SNORD22 /// SNORD25 /// SNORD26 /// SNORD27 /// SNORD28 /// SNORD29 /// SNORD31 / Fold change vs veh, SNHG1 /// SNORD22 /// SNORD25 /// SNORD26 /// SNORD27 /// SNORD28 /// SNORD29 /// SNORD31 / Fold change (Aza/veh), C12orf56 (ProbeSet 11735607_a_at) / Fold change (ACY-1035/veh), C12orf56 (ProbeSet 11735607_a_at) / Fold change (Aza/veh), FGFR1OP (ProbeSet 11751329_s_at) / Fold change (ACY-1035/veh), FGFR1OP (ProbeSet 11751329_s_at) / Fold change (Aza/veh), VPS36 (ProbeSet 11739960_a_at) / Fold change (ACY-1035/veh), VPS36 (ProbeSet 11739960_a_at) / RFU SYPL1 (11715823_x_at) / Fold change /veh SYPL1 (11715823_x_at) / RFU IGFBP7 (11715501_s_at) / Fold change /veh IGFBP7 (11715501_s_at) / RFU REEP3 (11722064_at) / Fold change /veh REEP3 (11722064_at) / RFU IGLL1 (11728026_x_at) / Fold change /veh IGLL1 (11728026_x_at): dose or concentration left out as unconfirmed
Conditions: MV-4-11 cells, 48 hours

Nc1ccc(-c2cccs2)cc1NC(=O)c1ccc2c(c1)cc(C1CC1)n2CCN1CCOCC1 [ACY-1035]
Fold change /veh TPSAB1 /// TPSB2 (11721975_s_at): 0.95
